According to US8481515B2, “Derivatives of cholest-4-en-3-one oxime, pharmaceutical compositions containing them and preparation method” (Trophos, priority 2005, dated 2013):

Legend:
rat motoneurons = assay: in vitro trophic deprivation model of rat motoneurons (survival, calcein fluorescence); format: cell-based; details: 3 days of culture, no trophic factors
From the text: It may be helpful to refer to Patent Application WO 0142784 of the applicant on the culture of spinal cord motoneurons.
The spinal cord of E14 rat embryos is dissected and the ventral portion is dissociated by trituration after trypsinization. The motoneurons are separated from the other spinal cells by a known method (Camu et al, 1993, Purification of spinal motoneurons from chicken and rat embryos by immunopanning. In <<Immunoselection Strategies for Neural cell culture>>), Neuroprotocols: A companion to Methods in Neurosciences 2, 191-199; Henderson et al., 1993, Neutrophins promote motor neuron survival and are present in embryonic limb bud. Nature 363 (6426):266-70). The cells are centrifuged on a density gradient. The motoneurons are enriched with the fraction of large (the less dense) cells. The cells of this fraction are incubated with an anti-p75 antibody, a surface antigen present on motoneurons. Secondary antibodies coupled with magnetic beads are added and the cell mixture is passed through a column in a magnet (Arce et al, 1999 Cardiotrophin-1 requires LIFRbeta to promote survival of mouse motoneurons purified by a novel technique. J. Neurosci Res 55(1): 119-26). Only motoneurons are retained: their purity is of the order of 90%.
The motoneurons are sown at low density in culture wells on a polyornithine-laminine substrate in a neurobasal medium (GIBCO) supplemented according to Raoul et al, 1999, Programmed cell death of embryonic motoneurons triggered through the Fas death receptor. J. Cell. Biol. 147(5):1049-62. Negative (absence of trophic factors) controls and positive controls (in the presence of 1 ng/ml BDNF (Brain-Derived Neurotrophic Factor), 1 ng/ml GDNF (Glial-Derived Neurotrophic Factor) and 10 ng/ml CNTF (Ciliary Neurotrophic Factor) as marketed by the US company PEPROTECH, Inc. and Sigma-Aldrich) are included in each series.
The compounds to be tested are added 60 minutes after sowing and the cultures are maintained at 37° C. under 5% CO2 for 3 days.
The motoneurons tend to die spontaneously in the absence of neurotrophic factors (Pettmann and Henderson, 1998, Neuronal cell death. Neuron 20(4):633-47). After 3 days, survival is evaluated by a fluorescence measurement after incubation of the cells in the presence of calcein which becomes fluorescent in living cells.
After 3 days of culture at 37° C. under 5% CO2 and in saturating humidity, up to 50% of the initially sown motoneurons survive in the medium supplemented with neurotrophic factors, whereas less than 15% of the motoneurons survive in a culture medium not added with neurotrophic factors.
The neuroprotective activity of the compounds to be tested was evaluated by their capacity of preventing the death of motoneurons when they are added to the Neurobasal medium (GIBCO) as compared with survival of the motoneurons in a medium added with neurotrophic factors.
The compounds of formula I according to the invention have shown neuroprotective activity at a concentration capable of providing a better survival rate of the motoneurons in the Neurobasal medium. This survival rate is expressed by the number of living cells after treatment with the compound to be tested as compared with survival induced by neurotrophic factors. This ratio therefore represents the survival percentage due to the tested compound as compared with the survival induced by neurotrophic factors. If the ratio is greater than 0, the effect of the compound is positive for the survival of motoneurons.

striatal neurons = assay: protection of striatal neurons against death induced by overexpression of a mutated form of huntingtin; format: cell-based; details: 7 days, living cells expressing GFP
Description: Primary cultures of striatal neurons are prepared and they are described in the literature (Primary striatal neuronal culture, Mao L. et al., Methods Mol. Med., 2003, 79:379-86). […] A second expression vector containing the DNA coding for the green fluorescent protein (GFP) is also electroporated and is used as a reporter gene. The DNA of the plasmid coding for the huntingtin was prepared by purifying with cesium chloride. The plasmid containing the GFP sequence was prepared on Qiagen columns. The integrity of the DNA sequences is checked by sequencing, transfection and Western blotting. The cells which survive electroporation are sown at a density of 4,000 cellules per well of 96-well plates. The culture is accomplished in neurobasal medium (GIBCO) supplemented with pyruvate and B-27 (Beckton Dickinson). The cells are maintained in culture for 7 days without changing the medium.
[…] Positive controls are made by adding BDNF at a final level of 5 ng/ml. The negative controls only receive 0.5% DMSO.
Cell death is evaluated after 7 days by counting the number of living cells expressing GFP.
The activity of the compounds to be tested was evaluated by their capacity of preventing death of striatal neurons cultivated in the neurobasal medium as compared with the survival of striatal neurons in a medium supplemented with BDNF (Brain-Derived Neurotrophic Factor).

cortical neurons = assay: protection of cortical neurons against camptothecin-induced death (calcein-AM cell count); format: cell-based, Sprague-Dawley rat; details: 10 μM camptothecin, 16 hours, mean ± standard deviation, n = 8 wells
Description: Cortical neurons were prepared from Sprague-Dawley rat embryos in the E18 pregnancy stage and cultivated in a 96-well plate at a density of 333 cells/mm^2 in Neurobasal medium (Invitrogen) supplemented with 2% B27 (Invitrogen) and 2% sodium pyruvate. With these culture conditions, it is possible to obtain very good cortical neuron purity in the cultures. After 6 days in culture, the death of cortical neurons was induced by adding 10 μM camptothecin dissolved in dimethyl sulfoxide (DMSO). At the same moment, the neurons were treated with different concentrations of the compound to be tested. The final DMSO concentration after treatment is 1%. After 16 hours of incubation with camptothecin, the survival of the neurons was evaluated by counting the surviving cells. To do this, the cells were incubated for 20 minutes in the presence of a vital dye, calcein-AM (Invitrogen) at 2 μg/ml. After labelling, each culture well was analyzed by means of an imaging station (Flash Cytometer, TROPHOS, FRANCE) provided with an image analysis software package TINA 4.5 (TROPHOS, France) allowing acquisition of digital images of the whole of the well (exposure time 40 ms). The cells, defined by pixel size criteria (min=10; max=40), were then counted by means of the Tina 4.5 software package (TROPHOS)

CC(C)=CCC[C@@H](C)[C@H]1CC[C@H]2[C@@H]3CC(=NO)C4=CC(=NO)CC[C@]4(C)[C@H]3CC[C@]12C [Example 10, cholest-4,24-dien-3,6-dioxime]
Ratio (survival of motoneurons with compound as compared with survival induced by neurotrophic factors) (rat motoneurons; concentration 1 μM): 0.25

CCC(C=C[C@@H](C)[C@H]1CC[C@H]2[C@@H]3CC(=NO)C4=CC(=NO)CC[C@]4(C)[C@H]3CC[C@]12C)C(C)C (stereo partly shown) [Example 13, 24-ethyl-cholest-4,22-dien-3,6-dioxime]
Ratio (survival of motoneurons with compound as compared with survival induced by neurotrophic factors) (rat motoneurons; concentration 1 μM): 0.34

CC(C)CCC[C@@H](C)[C@H]1CC[C@H]2[C@@H]3CC(=NO)C4=CC(=NO)CC[C@]4(C)[C@H]3CC[C@]12C [Example 9, cholest-4-en-3,6-dioxime]
Ratio (survival of motoneurons with compound as compared with survival induced by neurotrophic factors) (rat motoneurons; concentration 0.6 μM): 0.25
Ratio (survival of striatal neurons as compared with survival in medium supplemented with BDNF) (striatal neurons; concentration 0.3 μM): 0.5

CCC(C=C[C@@H](C)[C@H]1CC[C@H]2[C@@H]3CC(=O)C4=CC(=NO)CC[C@]4(C)[C@H]3CC[C@]12C)C(C)C (stereo partly shown) [Example 7, 24-ethyl-3-oxyimino-cholest-4,22-dien-6-one]
Ratio (survival of motoneurons with compound as compared with survival induced by neurotrophic factors) (rat motoneurons; concentration 1 μM): 0.46

CC(C)CCC[C@@H](C)[C@H]1CC[C@H]2[C@@H]3CC(=O)C4=CC(=NO)CC[C@]4(C)[C@H]3CC[C@]12C [Example 3, 3-oxyimino-cholest-4-en-6-one]
Ratio (survival of motoneurons with compound as compared with survival induced by neurotrophic factors) (rat motoneurons; concentration 3 μM): 0.60
Ratio (survival of striatal neurons as compared with survival in medium supplemented with BDNF) (striatal neurons; concentration 1 μM): 0.3
Cell viability (%) (cortical neurons; 0.1 μM compound): 63.3 ± 20.3%
Cell viability (%) (cortical neurons; 0.3 μM compound): 99.1 ± 15.7%
Cell viability (%) (cortical neurons; 1 μM compound): 112.2 ± 22.3%
